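Grown in 96-well plates, cells were treated for 48 hours with each compound at five concentrations. Insufficient inhibition: endpoint recorded as highest concentration tested. GI50 = concentration required for 50% inhibition of growth. TGI: total growth inhibition.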

Holding throughout (test): NCI tumour cell line growth inhibition, 48 h
Experiment [1] concerns CAKI-1 renal.
The subject of experiment [2] is HCT-15 colon.
For experiment [3], the system named is HOP-62 NSCLC.
In experiment [4] the test system is LOX IMVI melanoma.
The subject of experiment [5] is MALME-3M melanoma.
In experiment [6] the test system is NCI-H460 lung.
For experiment [7], the system named is OVCAR-4 ovarian.
In experiment [8] the test system is SF-295 CNS.
Experiment [9] has as its system U251 CNS.
The test system of experiment [10] is MDA-MB-435.

As for `O=[N+]([O-])/C=C/c1cn(CCCCCn2cc(/C=C/[N+](=O)[O-])c3ccccc32)c2ccccc12`, the TGI in experiment [1] was greater than 53.6 µM; in [2], 8.67 µM; in [3], 10.6 µM; in [4], 1.51 µM; in [5], 5.95 µM; in [6], 17.4 µM. Also, the TGI in experiment [7] is 7.1 µM; in experiment [8], greater than 43.9 µM; in [9] it was 3.89 µM.

As for `Cc1cc([N+](=O)[O-])c(S(=O)(=O)c2ccccc2)c([N+](=O)[O-])c1`, the TGI in [1] stood at 10.3 µM; in [2] it was 35.3 µM; in experiment [3] it was 40 µM; in experiment [4], 6.51 µM; in experiment [5], 27.9 µM; in experiment [6] it was 28.2 µM. In addition, the TGI in experiment [7] came out at 24.5 µM; in experiment [8], 36.9 µM; in experiment [9], 26.6 µM.

Regarding `CNc1ccc(Cl)cc1S(=O)(=O)c1ccccc1[N+](=O)[O-]`, the TGI in [2], in experiment [3], in [4], in [5], in experiment [6] and in experiment [7] was greater than 100 µM in each case. Besides, the TGI in [8] and in [9] was greater than 100 µM each time.

For `CC(c1ccccc1)N1CC(C)(c2ccccc2)N(O)C(c2ccccc2)C1C` (stereo unspecified), the TGI in experiment [3] was 38.9 µM; in experiment [4], 30.1 µM; in experiment [5], 66.2 µM; in experiment [6] it was 27 µM; in [8], 37.5 µM; in experiment [9], 32.7 µM.

As to `Nc1c(N=Nc2ccc(-c3ccc(N=Nc4c(O)ccc5cc(S(=O)(=O)O)cc(S(=O)(=O)O)c45)cc3)cc2)c(S(=O)(=O)O)cc2cc(S(=O)(=O)O)c(N=Nc3ccccc3)c(O)c12`, the TGI in [2], in experiment [3], in [4], in [5], in [6] and in experiment [7] was greater than 100 µM in each case. Moreover, the TGI in [8] and in experiment [9] was greater than 100 µM each time.

For `COc1cc2cccc(N=Cc3c(Br)ccc(OC)c3OC(C)C)c2cc1OC`, the TGI was 70.2 µM in experiment [1]; greater than 100 µM in experiment [3]; greater than 100 µM in experiment [5]; greater than 100 µM in experiment [6]; greater than 100 µM in [7]; greater than 100 µM in experiment [8]. This compound also registered a TGI in experiment [9] greater than 100 µM.

Regarding `CC(=O)NC1=C(NCC(C)C)C(=O)c2ccccc2C1=O`, the TGI in [1] was 30.6 µM; in experiment [2] it was 33.7 µM; in [3] it was greater than 100 µM; in experiment [4], 30.1 µM; in experiment [5], 34.2 µM; in experiment [6] it was greater than 100 µM. Also, the TGI in experiment [7], in experiment [8] and in experiment [9] was greater than 100 µM throughout.

As for `OC12CCCCCC1(N1CCOCC1)c1ccccc12` (stereo unspecified), the TGI in experiment [1], in [2], in experiment [3], in experiment [4], in experiment [5] and in [6] was greater than 100 µM throughout. Besides, the TGI in experiment [7], in experiment [8] and in [9] was greater than 100 µM each time.

In the case of `CCN(CC)CCCCC1CCN(CC(=O)N2c3ccccc3NC(=O)CC2C)CC1` (stereo unspecified), the TGI is greater than 100 µM in [1]; greater than 100 µM in experiment [2]; greater than 100 µM in [3]; 47.6 µM in [4]; greater than 100 µM in experiment [5]; greater than 100 µM in experiment [6]. Also, the TGI in experiment [7], in experiment [8] and in [9] was greater than 100 µM each time.

With `COC(=O)CC(NC(=O)OCc1ccccc1)C(C(=O)OCc1ccccc1)C1(C)OCCO1` (stereo unspecified), the TGI in experiment [2], in [3], in experiment [4], in experiment [5], in experiment [6] and in [7] was greater than 100 µM throughout. In addition, the TGI in experiment [8] and in [9] was greater than 100 µM in each case.

Turning to `c1ccc([P+](c2ccccc2)(c2ccccc2)c2ccc([P+](c3ccccc3)(c3ccccc3)c3ccccc3)cc2)cc1`, the TGI in experiment [1], in experiment [2], in experiment [3], in [4], in [5] and in experiment [10] was greater than 100 µM in each case. The TGI in [6], in [8] and in experiment [9] was greater than 100 µM throughout.

With `CC(=O)CC1(C)OC(N)=C(C#N)C1(C#N)C#N` (stereo unspecified), the TGI in experiment [1], in [2], in [3], in [4], in experiment [5] and in experiment [10] was greater than 100 µM in each case. Moreover, the TGI in [8] and in experiment [9] was greater than 100 µM in each case.

As to `Cc1cc2occ(-c3ccc(Cl)cc3)c2c(=O)o1`, the TGI in [1], in experiment [2], in [3], in experiment [4], in experiment [5] and in experiment [6] was greater than 100 µM throughout. Besides, the TGI in experiment [7], in [8] and in experiment [9] was greater than 100 µM throughout.

For the compound `O=C(OCc1ccccc1C1CSCSC1)c1cc(C(=O)OCc2ccccc2C2CSCSC2)c(C(=O)OCc2ccccc2C2CSCSC2)cc1C(=O)OCc1ccccc1C1CSCSC1`, the TGI in experiment [1], in experiment [2], in [3], in experiment [4], in experiment [5] and in experiment [6] was greater than 100 µM each time. In addition, the TGI in experiment [7], in experiment [8] and in experiment [9] was greater than 100 µM each time.

For the compound `O=CNNC(=O)Nc1ccc(Cl)cc1`, the TGI in experiment [2], in experiment [3], in experiment [5], in experiment [10], in experiment [7] and in experiment [8] was greater than 100 µM each time. For the same compound, in experiment [9], the TGI is greater than 100 µM.

For the compound `O=c1c2c(nc3n1CCC3)sc1c(O)c(Br)ccc12`, the TGI in experiment [1] is greater than 100 µM; in [2] it was 45.7 µM; in [3], 45.3 µM; in experiment [4], 27.1 µM; in experiment [5] it was 34.4 µM; in experiment [6] it was 34.4 µM. Also, the values for the TGI in experiment [7], in experiment [8] and in [9] were 54.9 µM, 35 µM and 57.3 µM, respectively.

For the compound `C=CCOC(=O)CCCCCCCCCCCCCCCOC(=O)C1=C(CCC[C@@H](C)O[Si](C)(C)C(C)(C)C)NC(=O)N2[C@H](CC3(CC/C=C\[C@H](CC)O[Si](C(C)C)(C(C)C)C(C)C)OCCO3)CC[C@H]12`, the TGI in experiment [1], in [2], in experiment [3], in experiment [5], in experiment [10] and in [6] was greater than 100 µM throughout. Also, the TGI in experiment [7], in experiment [8] and in experiment [9] was greater than 100 µM in each case.

With `CCCCCCOc1ccc(C(=N)N(CCCC)CCCC)c2ccccc12`, the GI50 in experiment [1] was 1.39 µM; in experiment [3] it was 1.7 µM; in [6], 1.56 µM; in experiment [8], 1.6 µM; in [9] it was 1.5 µM. Also, the TGI came to 2.86 µM in experiment [1]; 3.34 µM in experiment [3]; 3.01 µM in experiment [6]; 3.17 µM in [8]; 2.97 µM in experiment [9].

As for `CCOC1=C2NC(Cc3ccc(F)cc3)=NC2C(=O)c2ccccc21` (stereo unspecified), the TGI in [3] was greater than 100 µM; in experiment [4], 71.4 µM; in [5], 55.8 µM; in experiment [6], 52.4 µM; in [9], greater than 100 µM.

For the compound `O=C1CSc2nnc(CCCCCCCCc3nnc4n3NC(=O)CS4)n2N1`, the TGI in experiment [1], in experiment [2], in experiment [3], in experiment [5], in experiment [10] and in experiment [6] was greater than 100 µM in each case. Further, the TGI in experiment [7], in experiment [8] and in experiment [9] was greater than 100 µM each time.

In the case of `c1ccc(OCCSCCCCCCCCCCSCCOc2ccccc2)cc1`, the TGI is greater than 100 µM in experiment [2]; greater than 100 µM in experiment [3]; greater than 100 µM in experiment [4]; 90.4 µM in [5]; greater than 100 µM in experiment [6]; greater than 100 µM in experiment [8]. For the same compound, in experiment [9], the TGI was greater than 100 µM.

Take `CCOC(=O)C1CCCCc2sc(N)c(C#N)c21` (stereo unspecified): the TGI in experiment [2], in [3], in experiment [5], in experiment [6] and in experiment [9] was greater than 100 µM throughout.

For the compound `Cc1cc(=O)[nH]c(NNC(C#N)c2ccc([N+](=O)[O-])cc2)n1` (stereo unspecified), the TGI in [1], in [2], in experiment [3], in [4], in [5] and in [6] was greater than 100 µM each time. The TGI in [7], in experiment [8] and in experiment [9] was greater than 100 µM each time.

For `C/C(=N/O)c1ccc2c(c1)C(=NO)c1cc(/C(C)=N/O)ccc1-2`, the TGI in experiment [1] is greater than 100 µM; in experiment [2] it was 36.3 µM; in experiment [3], 28.3 µM; in experiment [4], 26.7 µM; in experiment [5], 23 µM; in experiment [6] it was 31.8 µM. Moreover, the TGI in [7] was found to be 30.5 µM; in [8] it was 29.1 µM; in experiment [9], 28.6 µM.

In the case of `CCOC(=O)/C(C#N)=C/N(CC)/N=C/c1ccccc1`, the TGI in experiment [1], in experiment [2], in experiment [5], in experiment [10], in [6] and in experiment [7] was greater than 100 µM throughout. In addition, the TGI in experiment [8] and in experiment [9] was greater than 100 µM each time.

`[N-]=[N+]=C(C(=O)C(=[N+]=[N-])C(=O)c1ccccc1)C(=O)c1ccccc1`: the TGI in experiment [2], in experiment [3], in experiment [4], in experiment [5], in [10] and in experiment [6] was greater than 100 µM throughout. Also, the TGI in experiment [8] was greater than 100 µM.

As for `O=C1CC2(CCNCC2)C(=O)N1N1CCOCC1`, the TGI in [1], in [2], in experiment [3], in experiment [4], in [5] and in experiment [6] was greater than 100 µM each time. Moreover, the TGI in experiment [7], in experiment [8] and in [9] was greater than 100 µM each time.

Consider `COc1ccc(-c2c3ccccc3c(-c3ccc(OCCCCCBr)cc3)c3ccccc23)cc1`, for which the TGI in experiment [1], in [2], in [3], in [4], in experiment [5] and in experiment [6] was greater than 100 µM in each case. The TGI in [7] and in experiment [8] was greater than 100 µM in each case.

In the case of `CCOc1ccc(-c2oc(/C=N/NS(=O)(=O)c3ccc(C)cc3)c([N+](=O)[O-])c2-c2ccc(OCC)cc2)cc1`, the TGI is 43.1 µM in experiment [1]; 18.4 µM in [2]; greater than 64.3 µM in experiment [3]; 12.6 µM in experiment [4]; 37.1 µM in [5]; 29.7 µM in [6]. Moreover, the TGI in [7] turned out to be 25.4 µM; in [8] it was 38.4 µM; in experiment [9] it was 21.2 µM.

Take `CC(=O)Nc1ccc(C(=O)N2N=C(C)/C(=C/c3ccc(O)cc3)C2=O)cc1`: the TGI in [1], in experiment [2], in experiment [3], in experiment [4], in experiment [5] and in experiment [6] was greater than 100 µM throughout. Further, the TGI in experiment [7], in experiment [8] and in experiment [9] was greater than 100 µM throughout.

The record behind these values is PubChem BioAssay (NCI).
